Tested on: KM12
Test: Growth inhibition of human KM12 cells assessed as cell growth at 10 uM incubated for 48 hrs by sulforhodamine B assay relative to control
Type: functional
Conditions: KM12, 48 h, read-out: Activity

SMILES	growth at 10 µM [%]
O=C(Nc1cccc(-n2cc(-c3ccncc3)c(-c3cc(O)cc(Cl)c3)n2)c1)Nc1ccc(Cl)c(C(F)(F)F)c1	15.1

Tested on: OVCAR-8
Test: Growth inhibition of human OVCAR8 cells assessed as cell growth at 10 uM incubated for 48 hrs by sulforhodamine B assay relative to control
Type: functional
Conditions: OVCAR-8, 48 h, read-out: Activity

SMILES	growth at 10 µM [%]
O=C(Nc1cccc(-n2cc(-c3ccncc3)c(-c3cc(O)cc(Cl)c3)n2)c1)Nc1ccc(Cl)c(C(F)(F)F)c1	3.69

Tested on: SK-MEL-28
Test: Growth inhibition of human SK-MEL-28 cells assessed as cell growth at 10 uM incubated for 48 hrs by sulforhodamine B assay relative to control
Type: functional
Conditions: SK-MEL-28, 48 h, read-out: Activity

SMILES	growth at 10 µM [%]
O=C(Nc1cccc(-n2cc(-c3ccncc3)c(-c3cc(O)cc(Cl)c3)n2)c1)Nc1ccc(Cl)c(C(F)(F)F)c1	-13.5

Tested on: NCI-H23
Test: Growth inhibition of human NCI-H23 cells assessed as cell growth at 10 uM incubated for 48 hrs by sulforhodamine B assay relative to control
Type: functional
Conditions: NCI-H23, 48 h, read-out: Activity

SMILES	growth at 10 µM [%]
O=C(Nc1cccc(-n2cc(-c3ccncc3)c(-c3cc(O)cc(Cl)c3)n2)c1)Nc1ccc(Cl)c(C(F)(F)F)c1	10.5

Tested on: RPMI-8226
Test: Growth inhibition of human RPMI8226 cells assessed as cell growth at 10 uM incubated for 48 hrs by sulforhodamine B assay relative to control
Type: functional
Conditions: RPMI-8226, 48 h, read-out: Activity

SMILES	growth at 10 µM [%]
O=C(Nc1cccc(-n2cc(-c3ccncc3)c(-c3cc(O)cc(Cl)c3)n2)c1)Nc1ccc(Cl)c(C(F)(F)F)c1	13.8

Tested on: CCRF-CEM
Test: Growth inhibition of human CCRF-CEM cells assessed as cell growth at 10 uM incubated for 48 hrs by sulforhodamine B assay relative to control
Type: functional
Conditions: read-out: Activity

SMILES	growth at 10 µM [%]
O=C(Nc1cccc(-n2cc(-c3ccncc3)c(-c3cc(O)cc(Cl)c3)n2)c1)Nc1ccc(Cl)c(C(F)(F)F)c1	9.31

Tested on: HCT-15
Test: Growth inhibition of human HCT15 cells assessed as cell growth at 10 uM incubated for 48 hrs by sulforhodamine B assay relative to control
Type: functional
Conditions: HCT-15, 48 h, read-out: Activity

SMILES	growth at 10 µM [%]
O=C(Nc1cccc(-n2cc(-c3ccncc3)c(-c3cc(O)cc(Cl)c3)n2)c1)Nc1ccc(Cl)c(C(F)(F)F)c1	5.79

Tested on: MCF7
Test: Growth inhibition of human MCF7 cells assessed as cell growth at 10 uM incubated for 48 hrs by sulforhodamine B assay relative to control
Type: functional
Conditions: MCF7, 48 h, read-out: Activity

SMILES	growth at 10 µM [%]
O=C(Nc1cccc(-n2cc(-c3ccncc3)c(-c3cc(O)cc(Cl)c3)n2)c1)Nc1ccc(Cl)c(C(F)(F)F)c1	13.4

Tested on: A498
Test: Growth inhibition of human A498 cells assessed as cell growth at 10 uM incubated for 48 hrs by sulforhodamine B assay relative to control
Type: functional
Conditions: A498, 48 h, read-out: Activity

SMILES	growth at 10 µM [%]
O=C(Nc1cccc(-n2cc(-c3ccncc3)c(-c3cc(O)cc(Cl)c3)n2)c1)Nc1ccc(Cl)c(C(F)(F)F)c1	21.5

Tested on: SR
Test: Growth inhibition of human SR cells assessed as cell growth at 10 uM incubated for 48 hrs by sulforhodamine B assay relative to control
Type: functional
Conditions: read-out: Activity

SMILES	growth at 10 µM [%]
O=C(Nc1cccc(-n2cc(-c3ccncc3)c(-c3cc(O)cc(Cl)c3)n2)c1)Nc1ccc(Cl)c(C(F)(F)F)c1	-30.6

Tested on: HCC 2998
Test: Growth inhibition of human HCC2998 cells assessed as cell growth at 10 uM incubated for 48 hrs by sulforhodamine B assay relative to control
Type: functional
Conditions: HCC 2998, 48 h, read-out: Activity

SMILES	growth at 10 µM [%]
O=C(Nc1cccc(-n2cc(-c3ccncc3)c(-c3cc(O)cc(Cl)c3)n2)c1)Nc1ccc(Cl)c(C(F)(F)F)c1	34.3

Tested on: BT-549
Test: Growth inhibition of human BT549 cells assessed as cell growth at 10 uM incubated for 48 hrs by sulforhodamine B assay relative to control
Type: functional
Conditions: BT-549, 48 h, read-out: Activity

SMILES	growth at 10 µM [%]
O=C(Nc1cccc(-n2cc(-c3ccncc3)c(-c3cc(O)cc(Cl)c3)n2)c1)Nc1ccc(Cl)c(C(F)(F)F)c1	47.6

Tested on: OVCAR-5
Test: Growth inhibition of human OVCAR5 cells assessed as cell growth at 10 uM incubated for 48 hrs by sulforhodamine B assay relative to control
Type: functional
Conditions: OVCAR-5, 48 h, read-out: Activity

SMILES	growth at 10 µM [%]
O=C(Nc1cccc(-n2cc(-c3ccncc3)c(-c3cc(O)cc(Cl)c3)n2)c1)Nc1ccc(Cl)c(C(F)(F)F)c1	59.3

Tested on: SF-268
Test: Growth inhibition of human SF268 cells assessed as cell growth at 10 uM incubated for 48 hrs by sulforhodamine B assay relative to control
Type: functional
Conditions: SF-268, 48 h, read-out: Activity

SMILES	growth at 10 µM [%]
O=C(Nc1cccc(-n2cc(-c3ccncc3)c(-c3cc(O)cc(Cl)c3)n2)c1)Nc1ccc(Cl)c(C(F)(F)F)c1	42.1

Tested on: SNB-19
Test: Growth inhibition of human SNB19 cells assessed as cell growth at 10 uM incubated for 48 hrs by sulforhodamine B assay relative to control
Type: functional
Conditions: SNB-19, 48 h, read-out: Activity

SMILES	growth at 10 µM [%]
O=C(Nc1cccc(-n2cc(-c3ccncc3)c(-c3cc(O)cc(Cl)c3)n2)c1)Nc1ccc(Cl)c(C(F)(F)F)c1	44.5

Tested on: NCI-H322M
Test: Growth inhibition of human NCI-H322M cells assessed as cell growth at 10 uM incubated for 48 hrs by sulforhodamine B assay relative to control
Type: functional
Conditions: read-out: Activity

SMILES	growth at 10 µM [%]
O=C(Nc1cccc(-n2cc(-c3ccncc3)c(-c3cc(O)cc(Cl)c3)n2)c1)Nc1ccc(Cl)c(C(F)(F)F)c1	45

Tested on: Malme-3M
Test: Growth inhibition of human MALME-3M cells assessed as cell growth at 10 uM incubated for 48 hrs by sulforhodamine B assay relative to control
Type: functional
Conditions: read-out: Activity

SMILES	growth at 10 µM [%]
O=C(Nc1cccc(-n2cc(-c3ccncc3)c(-c3cc(O)cc(Cl)c3)n2)c1)Nc1ccc(Cl)c(C(F)(F)F)c1	-24.9

Tested on: PC-3
Test: Growth inhibition of human PC3 cells assessed as cell growth at 10 uM incubated for 48 hrs by sulforhodamine B assay relative to control
Type: functional
Conditions: PC-3, 48 h, read-out: Activity

SMILES	growth at 10 µM [%]
O=C(Nc1cccc(-n2cc(-c3ccncc3)c(-c3cc(O)cc(Cl)c3)n2)c1)Nc1ccc(Cl)c(C(F)(F)F)c1	5.34

Tested on: Hs-578T
Test: Growth inhibition of human Hs578T cells assessed as cell growth at 10 uM incubated for 48 hrs by sulforhodamine B assay relative to control
Type: functional
Conditions: read-out: Activity

SMILES	growth at 10 µM [%]
O=C(Nc1cccc(-n2cc(-c3ccncc3)c(-c3cc(O)cc(Cl)c3)n2)c1)Nc1ccc(Cl)c(C(F)(F)F)c1	21.7

Tested on: K562
Test: Growth inhibition of human K562 cells assessed as cell growth at 10 uM incubated for 48 hrs by sulforhodamine B assay relative to control
Type: functional
Conditions: K562, 48 h, read-out: Activity

SMILES	growth at 10 µM [%]
O=C(Nc1cccc(-n2cc(-c3ccncc3)c(-c3cc(O)cc(Cl)c3)n2)c1)Nc1ccc(Cl)c(C(F)(F)F)c1	5.24

Tested on: SW-620
Test: Growth inhibition of human SW620 cells assessed as cell growth at 10 uM incubated for 48 hrs by sulforhodamine B assay relative to control
Type: functional
Conditions: SW-620, 48 h, read-out: Activity

SMILES	growth at 10 µM [%]
O=C(Nc1cccc(-n2cc(-c3ccncc3)c(-c3cc(O)cc(Cl)c3)n2)c1)Nc1ccc(Cl)c(C(F)(F)F)c1	-33.6

Tested on: HL-60(TB)
Test: Growth inhibition of human HL-60(TB) cells assessed as cell growth at 10 uM incubated for 48 hrs by sulforhodamine B assay relative to control
Type: functional
Conditions: HL-60, 48 h, read-out: Activity

SMILES	growth at 10 µM [%]
O=C(Nc1cccc(-n2cc(-c3ccncc3)c(-c3cc(O)cc(Cl)c3)n2)c1)Nc1ccc(Cl)c(C(F)(F)F)c1	-26.9

Tested on: SK-MEL-5
Test: Growth inhibition of human SK-MEL-5 cells assessed as cell growth at 10 uM incubated for 48 hrs by sulforhodamine B assay relative to control
Type: functional
Conditions: SK-MEL-5, 48 h, read-out: Activity

SMILES	growth at 10 µM [%]
O=C(Nc1cccc(-n2cc(-c3ccncc3)c(-c3cc(O)cc(Cl)c3)n2)c1)Nc1ccc(Cl)c(C(F)(F)F)c1	23.8

Tested on: U-251
Test: Growth inhibition of human U251 cells assessed as cell growth at 10 uM incubated for 48 hrs by sulforhodamine B assay relative to control
Type: functional
Conditions: U-251, 48 h, read-out: Activity

SMILES	growth at 10 µM [%]
O=C(Nc1cccc(-n2cc(-c3ccncc3)c(-c3cc(O)cc(Cl)c3)n2)c1)Nc1ccc(Cl)c(C(F)(F)F)c1	-26.5

Tested on: OVCAR-4
Test: Growth inhibition of human OVCAR4 cells assessed as cell growth at 10 uM incubated for 48 hrs by sulforhodamine B assay relative to control
Type: functional
Conditions: OVCAR-4, 48 h, read-out: Activity

SMILES	growth at 10 µM [%]
O=C(Nc1cccc(-n2cc(-c3ccncc3)c(-c3cc(O)cc(Cl)c3)n2)c1)Nc1ccc(Cl)c(C(F)(F)F)c1	31.6

Tested on: COLO 205
Test: Growth inhibition of human COLO205 cells assessed as cell growth at 10 uM incubated for 48 hrs by sulforhodamine B assay relative to control
Type: functional
Conditions: COLO 205, 48 h, read-out: Activity

SMILES	growth at 10 µM [%]
O=C(Nc1cccc(-n2cc(-c3ccncc3)c(-c3cc(O)cc(Cl)c3)n2)c1)Nc1ccc(Cl)c(C(F)(F)F)c1	63.4

Tested on: T47D
Test: Growth inhibition of human T47D cells assessed as cell growth at 10 uM incubated for 48 hrs by sulforhodamine B assay relative to control
Type: functional
Conditions: read-out: Activity

SMILES	growth at 10 µM [%]
O=C(Nc1cccc(-n2cc(-c3ccncc3)c(-c3cc(O)cc(Cl)c3)n2)c1)Nc1ccc(Cl)c(C(F)(F)F)c1	25

Tested on: SNB-75
Test: Growth inhibition of human SNB75 cells assessed as cell growth at 10 uM incubated for 48 hrs by sulforhodamine B assay relative to control
Type: functional
Conditions: SNB-75, 48 h, read-out: Activity

SMILES	growth at 10 µM [%]
O=C(Nc1cccc(-n2cc(-c3ccncc3)c(-c3cc(O)cc(Cl)c3)n2)c1)Nc1ccc(Cl)c(C(F)(F)F)c1	24.1

Tested on: M14
Test: Growth inhibition of human M14 cells assessed as cell growth at 10 uM incubated for 48 hrs by sulforhodamine B assay relative to control
Type: functional
Conditions: M14, 48 h, read-out: Activity

SMILES	growth at 10 µM [%]
O=C(Nc1cccc(-n2cc(-c3ccncc3)c(-c3cc(O)cc(Cl)c3)n2)c1)Nc1ccc(Cl)c(C(F)(F)F)c1	-16.8

Tested on: MDA-MB-231
Test: Growth inhibition of human MDA-MB-231 cells assessed as cell growth at 10 uM incubated for 48 hrs by sulforhodamine B assay relative to control
Type: functional
Conditions: MDA-MB-231, 48 h, read-out: Activity

SMILES	growth at 10 µM [%]
O=C(Nc1cccc(-n2cc(-c3ccncc3)c(-c3cc(O)cc(Cl)c3)n2)c1)Nc1ccc(Cl)c(C(F)(F)F)c1	-47.3

Tested on: SF-295
Test: Growth inhibition of human SF295 cells assessed as cell growth at 10 uM incubated for 48 hrs by sulforhodamine B assay relative to control
Type: functional
Conditions: SF-295, 48 h, read-out: Activity

SMILES	growth at 10 µM [%]
O=C(Nc1cccc(-n2cc(-c3ccncc3)c(-c3cc(O)cc(Cl)c3)n2)c1)Nc1ccc(Cl)c(C(F)(F)F)c1	14.3

Tested on: SF-539
Test: Growth inhibition of human SF539 cells assessed as cell growth at 10 uM incubated for 48 hrs by sulforhodamine B assay relative to control
Type: functional
Conditions: SF-539, 48 h, read-out: Activity

SMILES	growth at 10 µM [%]
O=C(Nc1cccc(-n2cc(-c3ccncc3)c(-c3cc(O)cc(Cl)c3)n2)c1)Nc1ccc(Cl)c(C(F)(F)F)c1	32.6

Tested on: A549
Test: Growth inhibition of human A549/ATCC cells assessed as cell growth at 10 uM incubated for 48 hrs by sulforhodamine B assay relative to control
Type: functional
Conditions: A549, 48 h, read-out: Activity

SMILES	growth at 10 µM [%]
O=C(Nc1cccc(-n2cc(-c3ccncc3)c(-c3cc(O)cc(Cl)c3)n2)c1)Nc1ccc(Cl)c(C(F)(F)F)c1	8.81

— ChEMBL document CHEMBL4308841, “Synthesis, in vitro antiproliferative activity, and kinase inhibitory effects of pyrazole-containing diarylureas and diarylamides” (Eur J Med Chem, 2018)
